This is an account of results in ChEMBL document CHEMBL1131777, “Analogs of 4-(3-bromo-8-methyl-10-methoxy-6,11-dihydro-5H-benzo[5,6]-cyclo hepta[1,2-b]pyridin-11-yl)-1-(4-pyridinylacetyl)piperidine N-oxide as inhibitors of farnesyl protein transferase” (Bioorg Med Chem Lett, 1999).

The first assay concerns the target T1, Protein farnesyltransferase (Homo sapiens, UniProt P49354+P49356). Nature of the assay: In vitro inhibition of human Farnesyltransferase. The format is protein-complex assay.
Details: not given
In the case of `C=Cc1cnc2c(c1)CCc1cc(C)cc(OC)c1C2C1CCN(C(=O)Cc2cc[n+]([O-])cc2)CC1` (configuration not stated), the midpoint of inhibition, the IC50, lay at 0.059 µM.
Regarding `COc1cc(C)cc2c1C(C1CCN(C(=O)Cc3cc[n+]([O-])cc3)CC1)c1ncccc1CC2` (configuration not stated), it took 0.14 µM to reach half-maximal inhibition (IC50).
For `COc1cc(C)cc2c1[C@@H](C1CCN(C(=O)Cc3cc[n+]([O-])cc3)CC1)c1ncc(Br)cc1CC2`, the concentration for half-maximal inhibition (IC50) – broadly, the concentration that gives 50% inhibition – came to 0.0036 µM.
Compound `COc1cc(C)cc2c1C(C1CCN(C(=O)Cc3cc[n+]([O-])cc3)CC1)c1ncc(C3CC3)cc1CC2` (configuration not stated) had an IC50 of 0.2 µM.
For `CCc1cnc2c(c1)CCc1cc(C)cc(OC)c1C2C1CCN(C(=O)Cc2cc[n+]([O-])cc2)CC1` (configuration not stated), the concentration for half-maximal inhibition (IC50) was 0.074 µM.
The same measure, in the same setting: the same measure for `COc1cc(C)cc2c1C(C1CCN(C(=O)Cc3cc[n+]([O-])cc3)CC1)c1ncc(C)cc1CC2` (configuration not stated): 0.034 µM.

Another assay concerns the target T1, Protein farnesyltransferase. As to the kind of experiment: Percent inhibition of human Farnesyltransferase. The format is protein-complex assay. As to conditions: concentration not given here.
For `COc1cc(C)cc2c1C(C1CCN(C(=O)Cc3cc[n+]([O-])cc3)CC1)c1ncc(C(C)(C)O)cc1CC2` (configuration not stated), the inhibition – broadly, how much of the control response was suppressed – was found to be 26%.
